Experimental data taken from patent US3930838A, “S-benzyl-N,N-disec-butylthiocarbamate and its use as a rice field herbicide and a rice growth stimulant” (priority 1970, dated 1976).

Key:
rats = settings: os, literature values; cited from earlier work
rice [1] = settings: Belgian Pat. No. 728,265; cited from earlier work
rice [2] = assay: Outdoor comparison of rice stimulating action of M3432 with lower homologues and isomers (Example 11); assay type: in vivo; settings: 21 days after sowing
Protocol: In the province of Pavia, a test was carried out with outdoor treatments in a loam soil, on rice plots having a 12 m^2 surface each.
Formulations of 20% M3432 in emulsifiable oil were compared with 20% formulations in emulsifiable oil of S-benzyl-N,N-diisopropyl thiocarbamate; S-benzyl-N,N-diisobutylthiocarbamate; and S-benzyl-N,N-din.butylthiocarbamate employing quantities of 4, 6 and 20 kg./ha.
For each treatment, the results were gathered on 20 plants 21 days after the sowing.

mice = settings: os, literature values; cited from earlier work

SMILES | Acute toxicity LD50 (rats) | Main roots (rice [2]; 4 kg./ha.) | Secondary roots (rice [2]; 4 kg./ha.) | Shoot (rice [2]; 4 kg./ha.) | Main roots (rice [2]; 6 kg./ha.) | Secondary roots (rice [2]; 6 kg./ha.) | Shoot (rice [2]; 6 kg./ha.) | Main roots (rice [2]; 20 kg./ha.) | Secondary roots (rice [2]; 20 kg./ha.) | Shoot (rice [2]; 20 kg./ha.) | further results
O=[N+]([O-])c1ccc(Oc2ccc(Cl)cc2Cl)cc1 [Nitrofen, 2,4-dichlorophenyl-4'-nitrophenylether] | 3000 mg/kg | – | – | – | – | – | – | – | – | – | –
Oc1c(Cl)c(Cl)c(Cl)c(Cl)c1Cl [Pentachlorophenol] | 78 to 280 mg/kg | – | – | – | – | – | – | – | – | – | –
CCC(=O)Nc1ccc(Cl)c(Cl)c1 [Propanil, N(3,4-dichlorophenyl)-propionamide] | 1384 mg/kg | – | – | – | – | – | – | – | – | – | –
CCN(CC)C(=O)SCc1ccccc1 [S-benzyl-N,N-diethylthiocarbamate] | – | – | – | – | – | – | – | – | – | – | Aggressiveness towards rice compared with ring-substituted monothiocarbamates (rice [1]): more aggressive towards the rice
CC(C)CN(CC(C)C)C(=O)SCc1ccccc1 [S-benzyl-N,N-diisobutylthiocarbamate] | – | 3.21 No. | 1.68 No. | 5.25 cm. | 2.76 No. | 1.57 No. | 4.21 cm. | 2.59 No. | 1.52 No. | 3.96 cm. | –
CC(C)N(C(=O)SCc1ccccc1)C(C)C [S-benzyl-N,N-diisopropylthiocarbamate, S-benzyl-N,N-diisopropyl thiocarbamate] | – | 3.45 No. | 2.52 No. | 5.36 cm. | 3.67 No. | 1.63 No. | 5.44 cm. | 2.79 No. | 1.21 No. | 4.03 cm. | –
CCCCN(CCCC)C(=O)SCc1ccccc1 [S-benzyl-N,N-din.butyl-thiocarbamate, S-benzyl-N,N-din.butylthiocarbamate] | – | 3.26 No. | 1.78 No. | 4.76 cm. | 2.81 No. | 1.94 No. | 5.24 cm. | 1.94 No. | 2.05 No. | 2.34 cm. | –
CCN(CC)C(=O)SCc1ccc(Cl)cc1 [Saturn, S(4-chlorobenzyl)N,N-diethylthiocarbamate] | – | – | – | – | – | – | – | – | – | – | Acute toxicity LD50 (mice): 560 mg/kg
COC(=O)Nc1ccc(Cl)c(Cl)c1 [Swep, methyl-N-(3,4-dichlorophenyl)carbamate] | 552 mg/kg | – | – | – | – | – | – | – | – | – | –
